One series concerns IL-13. In words: IL-13 production in BALF (ELISA), animal asthma model. The series is classed as in vivo, Balb/c mouse. The conditions noted are these: OVA-10 mg/kg. The procedure:
(§1) Test was carried out by using an animal model which has been induced to have bronchial asthma by ovalbumin (OVA). As for the test animal, a 7-week old male Balb/c mouse was obtained from Jackson Laboratory (Bar Harbor, Me., USA), and used for the test after acclimation for 1 week. […] On day 3 and day 10 after intraperitoneally administering the first OVA, 2 mg of OVA were administered to the mouse via intratracheal injection. Then, from day 21 onwards for 4 weeks, the mouse was allowed to inhale OVA for 30 minutes by using a ultrasonic sprayer (NE-U12, Omron Co., Tokyo, Japan) (week 1 to week 3; exposed to 1% OVA, week 4; exposed to 2% OVA). Forty-eight hours after the last exposure to OVA, blood was taken from the anesthetized mouse, which was then subjected to autopsy to have observation of a pathological change. […]
(§2) Production amount of interleukins (IL-4, IL-5, and IL-13) in BALF separated from each test animal was measured by a commercially available kit for enzyme-linked immunosorbent assay (ELISA) (R&D System, USA). Analysis of each cytokine was carried out according to the experimental method provided by the manufacturer, and the absorbance at 450 nm was measured using an ELISA reader.
Background: An ELISA detects its analyte on a solid surface through an enzyme-linked reagent.

Another series has as its system IL-5. In words: IL-5 production in BALF (ELISA), animal asthma model. The format is in vivo, Balb/c mouse. As to conditions: OVA-10 mg/kg. The method, then: as §1, §2
The test system of the next series is IL-4. Briefly: IL-4 production in BALF (ELISA), animal asthma model. The series is classed as in vivo, Balb/c mouse. As to conditions: OVA-10 mg/kg. The procedure:
as §1, §2

Series [1] has as its system BEAS-2B pulmonary bronchial cells. In words: Cytotoxicity in BEAS-2B pulmonary bronchial cells using CCK-8. The series is classed as cell-based, human. The conditions noted are these: 0.1 μM. The procedure:
(§3) BEAS-2B cells (ATCC, USA), which are human bronchial epithelial cells, were cultured in Dulbecco's modified eagle medium (DMEM) added with fetal bovine serum (FBS) and penicillin-streptomycin (PS). BEAS-2B cells were cultured again for 18 hours in a 96-well plate (5×10^4 cells/well) containing DMEM 10% medium. The medium was subsequently removed and replaced with serum-free DMEM.

The test system of another series is TARC. Briefly: Inhibition of TARC secretion in TNF-α + IFN-γ + IL-4-treated BEAS-2B cells (ELISA). The format is cell-based. As to conditions: Homo sapiens, TNF-α + IFN-γ + IL-4, 24 hours, read-out: Inhibition rate (%) of TARC secretion. The method, then: as §3
Meanwhile, to measure the secretion amount of TARC, BEAS-2B cells were simultaneously treated with TNF-α (50 ng/ml), IFN-γ (10 ng/ml), and IL-4 (50 ng/ml), and, after culture for 24 hours, the measurement was made by using ELISA kit (R&D systems, USA).

Another series concerns RANTES. In words: Inhibition of RANTES secretion in TNF-α-treated BEAS-2B cells (ELISA). The format is cell-based. The conditions noted are these: Homo sapiens, 10 ng/ml TNF-α, 24 hours, read-out: Inhibition rate (%) of RANTES secretion. The procedure: as §3
After that, to measure the secretion amount of RANTES, the cells were simultaneously treated with a test sample and TNF-α (10 ng/ml) and cultured for 24 hours. Secretion amount of RANTES present in cell supernatant was measured by using ELISA kit (R&D systems, USA) according to the manufacturer's protocol. As a positive control group, 0.1 μM dexamethasone was used.

`CC(C)(O)c1ccccc1CC[C@@H](SCC1(CC(=O)O)CC1)c1cccc(/C=C/c2ccc3ccc(Cl)cc3n2)c1` [Montelukast, montelukast] displayed an IL-13 with IL-13 of 89.58 ± 9.46 pg/mL. For the same molecule, the IL-5 in the series with IL-5 amounted to 27.91 ± 8.61 pg/mL. The molecule further had an IL-4 in the series with IL-4 of 60.37 ± 12.05 pg/mL.
Take `C[C@@H]1C[C@H]2[C@@H]3CCC4=CC(=O)C=C[C@]4(C)[C@@]3(F)[C@@H](O)C[C@]2(C)[C@@]1(O)C(=O)CO` [positive control group, dexamethasone]: in series [1], the “Cell viability (%)” value is 99.34 ± 0.14%. Besides, the inhibition at 0.1 µM in the series on TARC worked out at 28.4 ± 8.77%; in the series with RANTES, 97.1 ± 12.9%.

What is called inhibition is the percentage by which the read-out fell short of the control.

The values are drawn from US20210138012A1, “COMPOSITION FOR PREVENTING, AMELIORATING, OR TREATING RESPIRATORY DISEASE COMPRISING SIRAITIA GROSVENORII EXTRACT AS EFFECTIVE COMPONENT” (KOREA INSTITUTE OF ORIENTAL MEDICINE, priority 2018, published 2021).
